Test results from patent US20140194477A1, “KINASE PROTEIN BINDING INHIBITORS” (Roswell Park Cancer Institute, priority 2011, published 2014).

Key:
CD-1 mice = assay: 28-day multiple-dose toxicologic study, IP, CD-1 mice; type: in vivo, mouse
Procedure: A 28-day, multiple-dose toxicologic study of the chemical 1,2,4,5-Benzenetetramine tetrahydrochloride was performed in CD-1 mice.
• 1,2,4,5-benzenetetramine tetrahydrochloride. The test article was prepared in PBS (physiologic buffered saline). The test article was prepared by the sponsor and delivered to the study director prior to the study. The test article was stored in the freezer (0° C.), protected from light.
• PBS (physiologic buffered saline), • Test System: • The CD-1 [Hsd:ICR(CD-l)] albino mouse was used. The CD-1 mouse is conventionally used in 28 day toxicity tests to provide information on which human hazards can be judged, and is one of the choices of species preferred by regulatory agencies. Mice were obtained from Harlan (Frederick, MD). • Mice were acclimated for 2 days prior to testing. 12 male and 12 female mice, nulliparous and non-pregnant, were used. Normal weight gain, appearance and behavior were factors used to select healthy mice for testing. Only naive animals were used. Mice were 7 weeks old (males) and 9 weeks old (females), weighed 21-26 grams (males) and 17-23 grams (females), and were in good health at the start of the study. Mice were 11 weeks old (males) and 13 weeks old (females), weighed 20-32 grams (males) and 19-26 grams (females) at the conclusion of the study. • Mice were randomly assigned to 4 experimental groups (high-dose, medium-dose, low-dose, and controls) consisting of 3 males and 3 females. Mice were identified via cage cards, tail markings, and ear punch. Mouse identification is summarized in Table 1. • Mice were fed autoclaved Harlan-Teklad sterilizable 7012 mouse/rat diet ad libitum. The feed is routinely analyzed by the manufacturer for nutritional components and environmental contaminants. Tap water acidified to a pH of 2.5-3.5 was provided in autoclaved water bottles ad libitum. Municipal water supply is analyzed by the Bureau Veritas Consumer Product Services of Buffalo, N.Y. on an annual basis. There are no known contaminants in the feed or water provided to the test animals that would be expected to interfere with this study. • Mice were group-housed, 3 to a cage, in autoclaved polycarbonate/polysulfone microisolator cages with autoclaved contact bedding (bed ′o cobs, Anderson's Industrial Products Group). • Environmental conditions in the animal housing room were maintained at an ambient temperature of 70±3°, relative humidity of 30-70%, and a 12:12 light-dark cycle. Animal housing rooms were ventilated with 100% fresh, HEPA filtered air with 10-15 air changes per hour.
• A 28-day multiple-dose toxicology study was performed.
The test article (1,2,4,5-benzenetetramine tetrahydrochloride) was prepared in PBS (the control article) and administered intraperiotoneally (IP) as 20 doses once daily on days 0-4, 7-11, 14-18, and 21-25 in the morning. The compound was diluted so as not to exceed a volume of 0.1 mL.
The test article (1,2,4,5-benzenetetramine tetrahydrochloride) was stored in the freezer (0° C.) and thawed to room temperature prior to injection. Mice were randomly allocated into 4 groups (control, low-dose, medium-dose, and high-dose) consisting of 3 males and 3 females, Dosages were calculated on a “per mouse” basis, not on a mg/kg basis. Mice in the low-dose group received the equivalent of a 15 mg/kg dose for a 20 g mouse (0.3 mg). Mice in the medium-dose group received the equivalent of a 30 mg/kg dose for a 20 g mouse (0.6 mg). Mice in the high-dose group received the equivalent of a 45 mg/kg dose for a 20 g mouse (0.9 mg). Mice in the control group received 0.1 mL of PBS (phosphate-buffered saline). Groups received the following doses, as outlined in table 1: […]

tumor = assay: Tumor growth in vivo
[1] = IP, 28-day study, high-dose group

In the case of Cl.Cl.Cl.Cl.Nc1cc(N)c(N)cc1N [Y15, 1,2,4,5-benzenetetraamine tetrahydrochloride], the “toxicity (summary statement)” value (CD-1 mice; 30 mg/kg by ip administration, duration 28 days) is reported as “no toxicity”, the pain following injection (CD-1 mice; IP, 20 daily doses over 28 days, 15, 30, 45 mg/kg equivalent) is reported as “pain following injection in all dose groups” and the clinical chemistry changes (CD-1 mice; IP, 28-day study) is reported as “not associated with any changes in clinical chemistry that were statistically and clinically significant”. The “gross and histopathologic findings” value (CD-1 mice; IP, 28-day study, all dose groups) was “gross and histopathologic peritonitis in mice in all dose groups”, the mean body weights (CD-1 mice; IP, 28-day study, high dose group (45 mg/kg equivalent)) was “statistically significant lowered mean body weights” and the hematologic changes (CD-1 mice; [1]) was “Some statistically and clinically significant hematologic changes”. For the same molecule, the mortality (CD-1 mice; [1]) was “unexpected mortality in the high-dose group”, the clinical signs (CD-1 mice; IP, 28-day study, medium (30 mg/kg) and high (45 mg/kg) dose groups) was “clinical signs consistent with general malaise and peritonitis” and the weight loss (CD-1 mice; IP, 28-day study, medium- and high-dose groups) was “weight loss in the medium- and high-dose groups”. For the same molecule, the “tumor growth in vivo” value (tumor) was “blocks tumor growth in vivo”.
